# According to PubChem BioAssay (NCI):
#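 Method: 48-hour compound exposure of cells in 96-well plates, five concentrations, linear interpolation of endpoints. GI50 marks 50% less growth. At the TGI there is no net growth.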
# Assays:
# Experiment in all cases: growth of human tumour cells (NCI), 48 h
# SK-MEL-5 melanoma = system: SK-MEL-5 melanoma
# SF-268 CNS = system: SF-268 CNS
# U251 CNS = system: U251 CNS
# HOP-92 NSCLC = system: HOP-92 NSCLC
# SNB-19 CNS = system: SNB-19 CNS
# 786-0 renal = system: 786-0 renal
# CCRF-CEM leukemia = system: CCRF-CEM leukemia
# SK-MEL-28 melanoma = system: SK-MEL-28 melanoma
# SR leukemia = system: SR leukemia
# MCF7 breast = system: MCF7 breast
SMILES,TGI (SK-MEL-5 melanoma) [µM],TGI (SF-268 CNS) [µM],TGI (U251 CNS) [µM],TGI (HOP-92 NSCLC) [µM],TGI (SNB-19 CNS) [µM],TGI (786-0 renal) [µM],TGI (CCRF-CEM leukemia) [µM],TGI (SK-MEL-28 melanoma) [µM],TGI (SR leukemia) [µM],TGI (MCF7 breast) [µM],GI50 (SK-MEL-5 melanoma) [µM],GI50 (SF-268 CNS) [µM],GI50 (U251 CNS) [µM],GI50 (HOP-92 NSCLC) [µM],GI50 (786-0 renal) [µM],GI50 (MCF7 breast) [µM],GI50 (CCRF-CEM leukemia) [µM],GI50 (SK-MEL-28 melanoma) [µM],GI50 (SR leukemia) [µM],GI50 (SNB-19 CNS) [µM]
COc1ccc(CC(C#N)c2cc(OC)c(OC)c(OC)c2)cc1 (centres undefined),2.7,> 71.4,6.32,16.7,> 100,> 100,> 100,> 100,2.15,–,–,–,–,–,–,–,–,–,–,–
CC(=O)OC1C/C(C)=C/[C@H](O)CC(C)/C=C/[C@@]2(C)CCC(C(C)(C)O)C12 (some centres undefined),> 100,> 100,> 100,> 100,> 100,> 100,> 100,> 100,> 100,–,–,–,–,–,–,–,–,–,–,–
CCCCCC/C=C\CCCCCCCCCc1c(O)c(OC)cc(O)c1CN(C)C,18.6,–,13.4,–,26.5,3.26,2.87,28.2,4.23,7,–,–,–,–,–,–,–,–,–,–
C=CC1=C(C)C(Cc2[nH]c(/C=c3\[nH]/c(=C/C4=NC(=O)C(C)/C4=C\C)c(C)c3CCC(=O)O)c(CCC(=O)OC)c2C)NC1=O (centres undefined),37.4,59.5,52.9,51.6,–,62.5,> 100,31.9,46,> 100,19.9,21.2,22.5,19.6,22,26.7,31.2,14.8,20,–
c1cc(-c2cnn3nc(N4CCOCC4)ccc23)nc(NC2CC2)n1,16.7,24.6,> 25,> 25,> 25,> 25,> 25,> 23.7,20,> 25,5.76,8.14,6.97,5.64,8.9,5.38,4.95,6.64,6.48,10.6
CCC(C)c1cnc(CC(C)C)c(=O)[nH]1 (centres undefined),> 100,> 100,> 100,> 100,> 100,> 100,> 100,> 100,> 100,> 100,–,–,–,–,–,–,–,–,–,–
Oc1oc(-c2ccccc2)nc1/C=C1/C=NN=N1,–,> 100,> 100,> 100,> 100,> 100,> 100,> 100,> 100,> 100,–,–,–,–,–,–,–,–,–,–
COc1cccc2cc(N(C)c3nc(C)nc4ccsc34)ccc12,< 0.01,13.9,15.1,2.19,22.9,12.3,> 100,20,26.8,16.3,< 0.01,< 0.01,< 0.01,< 0.01,< 0.01,< 0.01,< 0.01,1.53,< 0.01,< 0.01
C[C@@]1(CBr)C[C@@](C)(/C=C/Cl)[C@@H](Cl)C[C@H]1Cl,26.1,30.1,27.9,27.7,27.1,27,19.8,31.3,16.9,–,–,–,–,–,–,–,–,–,–,–
C=C(CN(CCN1CCOCC1)CC(=C)c1ccc(C(=O)Nc2ccccc2N)cc1)c1ccc(C(=O)Nc2ccccc2N)cc1,16.7,25,12.4,33.8,33.4,6.65,–,16.2,> 50,> 50,8.38,8.17,5.78,8.35,1.07,11,–,6.86,11.7,9.18
COc1cc(C(=O)/C=C/c2c(-c3cccs3)nc3ccccn23)cc(OC)c1OC,2.72,8.47,6.03,2.78,5.56,7.07,6.85,–,> 100,15.4,1.33,2.37,1.66,0.289,2.31,1.12,1.66,–,1.34,2.1
O=C1/C(=C/c2ccc(C(F)(F)F)cc2)COc2ccc(O)cc21,4.38,13.6,3.06,24.7,3.98,4.17,1.42,3.8,10.6,–,1.97,2.75,1.66,11.8,1.91,–,0.228,1.79,1.21,1.91
NC(N)=N/N=C(/c1ccccc1)c1ccc(O)cc1O,65.8,> 100,57.3,> 100,> 100,96.4,–,> 100,60.8,> 100,–,–,–,–,–,–,–,–,–,–
O=C(Cc1nc2ccccc2s1)C(=O)Nc1ccc(Cl)cc1Cl,–,> 100,> 100,> 100,> 100,> 100,–,> 100,> 100,–,–,–,–,–,–,–,–,–,–,–
CCCCCC/C=C/CCCCCCCc1cccc(O)c1C(=O)O,–,> 100,88.2,–,> 100,> 100,> 100,> 100,> 100,–,–,–,–,–,–,–,–,–,–,–
Cn1c(=O)c2[nH]cnc2n(CC(=O)O)c1=O,> 100,> 100,> 100,> 100,> 100,> 100,> 100,> 100,> 100,–,–,–,–,–,–,–,–,–,–,–
O=C(Nc1ccccc1)OCc1nc2c([nH]1)C(=O)C=CC2=O,27.3,–,25.5,45.1,28.5,32.5,13.1,30.5,51.7,–,–,–,–,–,–,–,–,–,–,–
COc1cc(CCC(=O)NS(=O)(=O)c2ccccc2)cc(OC)c1OC,–,> 100,> 100,> 100,> 100,> 100,> 100,> 100,> 100,–,–,–,–,–,–,–,–,–,–,–
